How the values were obtained:
[1] = test system: high fat high cholesterol (HFHC) diet rats; assay: Combination treatment with berberine and simvastatin in HFHC diet rats (Table 8); format: in vivo, rat; settings: oral, after 25 days, daily dose berberine 100 mg/kg, simvastatin 25 mg/kg, combination 100 + 25, average ± standard error
Description: Rats were fed a high fat high cholesterol (HFHC) diet for 10 days, and then divided into groups of seven. The rats were then administered berberine or simvastatin, or a combination of berberine and simvastatin orally for 25 days. After 25 days, serum cholesterol, triglyceride and LDL-c levels were measured. […] The combination of simvastatin, and berberine lowered the cholesterol, triglyceride and LDL-c levels further than either alone.

InsR = assay: Cell surface InsR expression in HepG2 cells (flow cytometry); format: cell-based, human; settings: HepG2, 2.5-15 μg/ml, eight hours
Description: The effect of berberine was also time-dependent. HepG2 cells were treated with 7.5 μg/ml for 0, 2, 4, 6, 8 or 24 hours and total RNA was isolated as described above for slot blot and RT-PCR assays of InsR mRNA and ACTB mRNA expression. The level of InsR mRNA increased 4 h after exposure of cells to berberine and reached the peak level of 2.5-fold of the control at 8 h; the expression of InsR mRNA remained high for at least 24 h (FIG. 16). HepG2 cells cultured with 0, 2.5, 5, 10 or 15 μg/ml of berberine or normal mouse IgG (FIG. 17) for eight hours then detached, washed and resuspended in FACS solution (PBS with 0.5% BSA and 0.02% sodium azide) at a density of 1×10^6 cells/ml. Cells were then incubated with a monoclonal antibody to InsR (NeoMarkers, Fremont, Calif.) at a final dilution of 1:100 (room temperature, 0.5 h). An isotype-matched, nonspecific mouse IgG was used as a control for nonspecific staining. Then, cells were washed and stained with FITC conjugated goat-anti-mouse IgG (Santa Cruz Biotech, 1:200 dilution). The fluorescent intensity was examined by flow cytometry (FAC Sort, Becton Dickinson, Calif.).

in vivo = settings: rabbit, 50 mg/kg
Description: 50 mg/kg of berberine was administered through stomach infusion to six rabbits. Serum samples were taken at various points after administration and RP-HPLC was used to measure the drug concentration.

InsR mRNA = InsR mRNA expression in HepG2 cells (real time RT-PCR, slot blot); format: cell-based, human; settings: HepG2, 2.5 μg/ml for 8 hours
Description: Cells from the human hepatoma cell line HepG2 were incubated with 0, 1, 2.5, 5, 10 or 15 μg/ml of berberine respectively for eight hours. Total cellular RNA was isolated using the Ultraspec RNA lysis solution (Biotecxs Laboratory, Houston, Tex.) following the vender's protocols. […] of the RNA sample was transferred to nitrocellulose membrane via a slot-blot apparatus (Schleicher & Schuell, Keene, N.H.). The blots were fixed by baking at 80° C. for 2 h, followed by hybridization to a 0.89-kb long, 32P-labelled human InsR cDNA probe. The same membranes were then stripped and re-hybridized to a human ACTB probe as internal control. Quantitative real time RT-PCR assays were also done. For the RT-PCR assay, total cellular RNA was reverse-transcribed into cDNA using the Reverse Transcription System (Promega, Madison, Wis.). Quantitative real-time PCR were performed with these cDNA using the Applied Biosystems 7500 Real-Time PCR System and TaqMan® Universal PCR Master Mix (Applied Biosystems, Foster City, Calif.). […] 2.5 μl of cDNA sample, 12.5 μl of Universal PCR Master Mix, and 1.25 μl of TaqMan® Gene Expression Assay reagent were mixed in a 25 μl reaction system, and the comparative CT method was used in relative gene quantification using the TaqMan® SDS analysis software. […]

HepG2 cells = assay: Glucose consumption of HepG2 cells with insulin, with or without InsR siRNA; format: cell-based, human; settings: […] berberine, 0.5 nM insulin, 12 hr
Description: Human InsR siRNA duplex, non-specific control siRNA, siRNA transfection reagent and siRNA transfection medium were obtained from Santa Cruz Biotechnology, Inc. (Santa Cruz, Calif.) and the vendor's siRNA transfection procedure was followed. Briefly, HepG2 cells were seeded onto six-well plates in antibiotic-free RPMI-1640 medium containing 10% fetal bovine serum (FBS). After 60-80% confluence of monolayer, FBS containing medium was discarded and cells were washed with siRNA transfection medium (2 mVwell). 0.8 ml of siRNA transfection medium containing 6 μl of human InsR siRNA duplex (or control siRNA) and 6 ld^1 of siRNA transfection reagent were well mixed at room temperature for 30 min, followed by loading onto washed HepG2 cells. After an 8 hr incubation, the transfection mixture was removed and fresh RPMI-1640 medium supplied with 10% FBS was added. The cells were then incubated for 24 hr. Then, the culture medium was replaced with fresh medium and incubated for an additional 24 hr. At the end of incubation, FBS containing medium was removed and replaced with serum-free fresh RPMI-1640 medium. […] After 12 hr incubation, the amount of glucose in the sample medium was determined. The glucose consumption was calculated according to the following formula: glucose level of the fresh RPMI-1640 minus glucose level of the used RPMIN-1640. […]

SREBP2 = assay: Precursor and mature forms of SREBP2 in HepG2 cells (Western blot); format: cell-based, human; settings: 8 hours
Excerpt: Total cell lysates from untreated cells or cells treated with either berberine or GW707 were then harvested and analyzed by Western blot.

SMILES: COc1ccc2cc3[n+](cc2c1OC)CCc1cc2c(cc1-3)OCO2 [berberine]
- LDL-c [1]: 1.2 ± 0.2 mmol/L
- Total Cholesterol [1]: 3.8 ± 0.5 mmol/L
- Triglyceride [1]: 2.1 ± 0.3 mmol/L
- cell surface InsR expression (InsR): increased cell surface expression
- peak time Tpeak (in vivo): 0.63 ± 0.25 h
- AUC (in vivo; po): 492 ± 296 ng·h/mL
- Cmax (in vivo; po): 92.7 ± 50.9 ng/mL
- half-life (in vivo; po): 3.11 ± 0.58 h
- increase of InsR mRNA (InsR mRNA): 40%
- glucose consumption of human hepatic cells treated with insulin (HepG2 cells): significantly increased
- amount of the mature form of SREB-2 (SREBP2): no effect

Source: patent publication US20080081781A1, “Methods and compositions for the treatment of metabolic syndrome” (priority 2004, published 2008)
